Legend:
CCK-A receptor = assay: CCK receptor binding, CCK-A receptor (Pancreas Assay), Dal Forno procedure
Description: (§1) The greater affinity of the compounds of the invention for the CCK-B receptor over the CCK-A receptor has also been established using the CCK receptor binding assays described by G Dal Fornos et al., J. Pharmcol. Exp & Ther. 261, 1056-1063, 1992.
(§2) The binding affinity of the compounds of the invention for the CCK-A receptor (Pancreas Assay) and CCK-B receptor (guinea pig cortex assay) was determined using the procedure of G Dal Forno et al J. Pharmacol. Exp & Ther. 261-1056-1063. The pKi values determined with respresentative compounds of invention were as follows: […]

CCK-B receptor = target: T1, CCK-B receptor (Cavia porcellus, UniProt H0VZC5); assay: CCK receptor binding, CCK-B receptor (guinea pig cortex assay), Dal Forno procedure; details: read-out: pKi CCK-B (converted)
T1 construct: CCK-B receptor (guinea pig cortex assay); from tissue; host or cells: guinea pig cortex
Description: as §1, §2

T1 sequence (H0VZC5 entry or part of it): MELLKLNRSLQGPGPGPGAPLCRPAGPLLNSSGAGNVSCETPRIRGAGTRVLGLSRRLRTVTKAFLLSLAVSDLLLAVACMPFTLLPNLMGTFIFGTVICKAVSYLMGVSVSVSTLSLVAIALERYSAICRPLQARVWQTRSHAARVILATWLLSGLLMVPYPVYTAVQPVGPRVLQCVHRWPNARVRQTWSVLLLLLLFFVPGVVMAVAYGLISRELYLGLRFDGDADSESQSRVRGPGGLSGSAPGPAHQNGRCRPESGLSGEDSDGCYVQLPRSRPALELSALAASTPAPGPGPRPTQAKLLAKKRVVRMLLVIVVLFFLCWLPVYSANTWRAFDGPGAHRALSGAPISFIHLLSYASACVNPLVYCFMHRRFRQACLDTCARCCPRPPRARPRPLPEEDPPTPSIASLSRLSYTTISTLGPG

| Structure (SMILES) | pKi CCK-A (CCK-A receptor) | Ki (CCK-B receptor) [nM] |
| --- | --- | --- |
| O=C(Nc1cccc(-c2nn[nH]n2)c1)NC1C(=O)N(CCC2CCCC2)c2ccccc2N(c2ccccc2F)C1=O (single isomer, unassigned; (+)) [Example 4, (+)-N-[1-(Cyclopentylethyl)-2,4-dioxo-5-(2-fluorophenyl)-2,3,4,5-tetrahydro-1H-benzodiazepin-3-yl]-N'-(3-tetrazolyl)phenylurea] | 6.63 | 0.105 |
| CC(C)(C)CCN1C(=O)C(NC(=O)Nc2cccc(-c3nnn[nH]3)c2)C(=O)N(c2ccccc2)c2ccccc21 (stereo not drawn) [Example 3, N-[1-(3,3-Dimethylbutyl)-2,4-dioxo-5-phenyl-2,3,4,5-tetrahydro-1H-1,5-benzodiazepine-3-yl]-N'[3-(5-tetrazolyl)-phenyl]urea] | 7.64 | 0.288 |
| O=C(Nc1cccc(-c2nn[nH]n2)c1)NC1C(=O)N(CCC2CCCC2)c2ccccc2N(c2ccccc2F)C1=O (single isomer, unassigned; (-)) [Example 5, (-)-N-[1-(Cyclopentylethyl)-2,4-dioxo-5-(2-fluorophenyl)-2,3,4,5-tetrahydro-1H-benzodiazepin-3-yl]-N'-(3-tetrazolyl)phenylurea] | 6.51 | 0.269 |
